Consider 43 compounds from patent publication US8507538B2, “Selective heterocyclic sphingosine 1 phosphate receptor modulators” (Receptos, Inc., priority 2009, dated 2013).

This assay deals with S1P1/EDG1 (Homo sapiens, UniProt P21453). Kind of assay: S1P1 CRE-bla CHOK1 reporter assay (inhibition of Forskolin induced cAMP). The class given is cell-based. The settings on record: agonist activity range, Table 2; read-out: S1P1 ACTIVITY
The essentials: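 Stable CRE-bla CHO-K1 clone expressing human S1P1, serum-starved (0.5% stripped serum) 18 h, then treated with compound (10-point curve) plus 2 μM forskolin for 4 h at 37 °C. β-lactamase FRET ratio (458/522 nm) read after 2 h substrate loading; EC50 for inhibition of forskolin-induced cAMP by non-linear regression.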
Background: A reporter such as luciferase makes a cellular process visible.

Counter-ions that a name gives are not always drawn. Bounds are passed on as bounds.

S1P1/EDG1, sequence (P21453 whole entry): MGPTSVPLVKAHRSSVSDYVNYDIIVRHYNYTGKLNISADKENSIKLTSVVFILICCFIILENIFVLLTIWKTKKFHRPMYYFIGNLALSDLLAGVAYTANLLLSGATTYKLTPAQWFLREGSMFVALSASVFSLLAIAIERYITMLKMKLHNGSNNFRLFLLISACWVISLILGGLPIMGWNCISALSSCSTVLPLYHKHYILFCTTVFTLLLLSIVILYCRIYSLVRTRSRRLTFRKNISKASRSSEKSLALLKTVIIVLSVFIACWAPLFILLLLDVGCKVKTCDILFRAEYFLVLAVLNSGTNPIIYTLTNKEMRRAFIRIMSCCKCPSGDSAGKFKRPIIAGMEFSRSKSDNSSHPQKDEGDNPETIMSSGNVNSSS

As for `CC(C)Oc1ccc(-c2ccc(-c3cccc4c3CC[C@H]4N)s2)cc1C#N` [Compound 225, (R)-5-(5-(1-amino-2,3-dihydro-1H-inden-4-yl)thiophen-2-yl)-2-isopropoxybenzonitrile], the EC50 is more than 5 nM.
To `CC(C)Oc1ccc(-c2nnc(-c3cccc4c3CC[C@@H]4NCC(=O)O)s2)cc1C#N` [Compound 26, (S)-2-((4-(5-(3-cyano-4-isopropoxyphenyl)-1,3,4-thiadiazol-2-yl)-2,3-dihydro-1H-inden-1-yl)amino)acetic acid] belongs 0.05 to 0.5 nM.
To `CC(C)Oc1ccc(-c2ncc(-c3cccc4c3CC[C@@H]4NS(=O)(=O)CCN3CCNCC3)s2)cc1C#N` [Compound 151] belongs more than 5 nM; to `CC(C)Oc1ccc(-c2ncc(-c3cccc4c3CC[C@@H]4NC(=O)CN(C)C)s2)cc1C#N` [Compound 81], 0.5 to 5 nM.
To `CC(C)Oc1ccc(-c2ncc(-c3cccc4c3CCC4NCc3ncc[nH]3)s2)cc1C#N` (stereo in doubt) [Compound 109, (R)-5-(5-(1-(((1H-imidazol-2-yl)methyl)amino)-2,3-dihydro-1H-inden-4-yl)thiazol-2-yl)-2-isopropoxybenzonitrile] belongs 0.5 to 5 nM; to `CC(C)Oc1ccc(-c2ncc(-c3cccc4c3CC[C@@H]4NC(=O)N3CCN(C)CC3)s2)cc1C#N` [Compound 191], more than 5 nM.
Consider `CC(C)Oc1ccc(-c2nnc(-c3cccc4c3CCC4NCC(=O)O)s2)cc1C#N` (stereo in doubt) [Compound 27, (R)-2-((4-(5-(3-cyano-4-isopropoxyphenyl)-1,3,4-thiadiazol-2-yl)-2,3-dihydro-1H-inden-1-yl)amino)acetic acid], for which the EC50 was 0.05 to 0.5 nM.
On to `CC(C)Oc1ccc(-c2ncc(-c3cccc4c3CC[C@@H]4NC(=O)N3CCC(CC(=O)O)CC3)s2)cc1C#N` [Compound 200], for which the EC50 is 0.05 to 0.5 nM.
As for `CC(C)Oc1ccc(-c2nnc(-c3cccc4c3CCC4NS(C)(=O)=O)s2)cc1C#N` (stereo in doubt) [Compound 34, (R)-N-(4-(5-(3-cyano-4-isopropoxyphenyl)-1,3,4-thiadiazol-2-yl)-2,3-dihydro-1H-inden-1-yl)methanesulfonamide], the EC50 was 0.05 to 0.5 nM.
For `CCOc1ccc(-c2nnc(-c3cccc4c3CCC4O)s2)cc1OCC` (stereo not shown) [Compound 3], the EC50 is 0.5 to 5 nM.
The figure for `CC(C)Oc1ccc(-c2csc(-c3cccc4c3CCC4O)c2)cc1C#N` (stereo not shown) [Compound 227, 5-(5-(1-hydroxy-2,3-dihydro-1H-inden-4-yl)thiophen-3-yl)-2-isopropoxybenzonitrile] is more than 5 nM; for `CC(C)Oc1ccc(-c2nnc(-c3cccc4c3CC[C@@H]4NS(=O)(=O)CC(=O)O)s2)cc1C#N` [Compound 40, (S)-2-(N-(4-(5-(3-cyano-4-isopropoxyphenyl)-1,3,4-thiadiazol-2-yl)-2,3-dihydro-1H-inden-1-yl)sulfamoyl)acetic acid] it is 0.05 to 0.5 nM; for `CC(C)Oc1ccc(-c2ncc(-c3cccc4c3CCC4N3CCOCC3)s2)cc1C#N` (stereo not shown) [Compound 214] it is 0.5 to 5 nM.
To `CC(C)Oc1ccc(-c2ncc(-c3cccc4c3CC[C@@H]4NCCS(C)(=O)=O)s2)cc1C#N` [Compound 221, (S)-2-isopropoxy-5-(5-(1-((2-(methylsulfonyl)ethyl)amino)-2,3-dihydro-1H-inden-4-yl)thiazol-2-yl)benzonitrile] belongs 0.05 to 0.5 nM; to `COC(=O)CN[C@H]1CCc2c(-c3cnc(-c4ccc(OC(C)C)c(C#N)c4)s3)cccc21` [Compound 99, (S)-methyl 2-((4-(2-(3-cyano-4-isopropoxyphenyl)thiazol-5-yl)-2,3-dihydro-1H-inden-1-yl)amino)acetate], 0.5 to 5 nM; to `CC(C)Oc1ccc(-c2nnc(-c3cccc4c3CC[C@@H]4NC(=O)N3CCC(O)CC3)s2)cc1C#N` [Compound 62], 0.5 to 5 nM.
As for `CC(C)Oc1ccc(-c2nnc(-c3cccc4c3CC[C@@H]4NCC(=O)N3CCCC3)s2)cc1C#N` [Compound 23], the EC50 fell in the range of 0.5 to 5 nM.
The figure for `CC(C)Oc1ccc(-c2ncc(-c3cccc4c3CC[C@@H]4NC(=O)N3CC[C@H](N(C)C)C3)s2)cc1C#N` [Compound 184] is more than 5 nM; for `CC(C)Oc1ccc(-c2nnc(-c3cccc4c3CC[C@@H]4NC(=O)CO)s2)cc1C#N` [Compound 7, (S)-N-(4-(5-(3-cyano-4-isopropoxyphenyl)-1,3,4-thiadiazol-2-yl)-2,3-dihydro-1H-inden-1-yl)-2-hydroxyacetamide] it is less than 0.05 nM; for `CC(C)Oc1ccc(-c2nnc(-c3cccc4c3CC[C@@H]4NS(=O)(=O)CCO)s2)cc1C#N` [Compound 45, (S)-N-(4-(5-(3-cyano-4-isopropoxyphenyl)-1,3,4-thiadiazol-2-yl)-2,3-dihydro-1H-inden-1-yl)-2-hydroxyethanesulfonamide] it is 0.05 to 0.5 nM.
To `CC(C)Oc1ccc(-c2ncc(-c3cccc4c3CC[C@@H]4NS(=O)(=O)C3CC3)s2)cc1C#N` [Compound 117] belongs 0.05 to 0.5 nM; to `CC(C)Oc1ccc(-c2nnc(-c3cccc4c3CCC4O)s2)cc1C#N` (stereo in doubt) [Compound 2, (R)-5-(5-(1-hydroxy-2,3-dihydro-1H-inden-4-yl) -1,3,4-thiadiazol-2-yl)-2-isopropoxybenzonitrile], 0.05 to 0.5 nM; to `CC(=O)N[C@@H]1CCc2c(-c3nnc(-c4ccc(OC(C)C)c(C#N)c4)s3)cccc21` [Compound 15, (R)-N-(4-(5-(3-cyano-4-isopropoxyphenyl)-1,3,4-thiadiazol-2-yl)-2,3-dihydro-1H-inden-1-yl)acetamide], 0.05 to 0.5 nM.
Take `CC(C)Oc1ccc(-c2nnc(-c3cccc4c3CC[C@@H]4NC(=O)N3CC[C@H](O)C3)s2)cc1C#N` [Compound 54]: the EC50 was in the range of 0.05 to 0.5 nM.
The figure for `CC(C)Oc1ccc(-c2ncc(-c3cccc4c3CC[C@@H]4NS(=O)(=O)CCN3CCC(N(C)C)CC3)s2)cc1C#N` [Compound 153] is more than 5 nM; for `CC(C)Oc1ccc(-c2nnc(-c3cccc4c3CC[C@@H]4NC(=O)N3CC(O)C3)s2)cc1C#N` [Compound 64] it is 0.5 to 5 nM; for `CC(C)Oc1ccc(-c2ncc(-c3cccc4c3CCC4NC3CCCCC3)s2)cc1C#N` (stereo not shown) [Compound 218] it is more than 5 nM.
To `CC(C)Oc1ccc(-c2ncc(-c3cccc4c3CC[C@@H]4NS(=O)(=O)CCN3CC[C@H](O)C3)s2)cc1C#N` [Compound 131] belongs 0.5 to 5 nM; to `CC(C)Oc1ccc(-c2ncc(-c3cccc4c3CC[C@@H]4NS(N)(=O)=O)s2)cc1C#N` [Compound 167, (S)-N-(4-(2-(3-cyano-4-isopropoxyphenyl)thiazol-5-yl)-2,3-dihydro-1H -inden-1-yl)sulfamide], 0.05 to 0.5 nM; to `CC(C)Oc1ccc(-c2ncc(-c3cccc4c3CC[C@@H]4NS(=O)(=O)CC(=O)N3CC(O)C3)s2)cc1C#N` [Compound 163], 0.05 to 0.5 nM.
The figure for `CC(C)Oc1ccc(-c2nnc(-c3cccc4c3CC[C@H]4NC(=O)N(C)C)s2)cc1C#N` [Compound 66] is 0.05 to 0.5 nM; for `CC(C)Oc1ccc(-c2nnc(-c3cccc4c3CCC4NC(=O)N3CC[C@H](N(C)C)C3)s2)cc1C#N` (stereo in doubt) [Compound 57, (S)-N-((R)-4-(5-(3-cyano-4-isopropoxyphenyl)-1,3,4-thiadiazol-2-yl)-2,3-dihydro-1H-inden-1-yl)-3-(dimethylamino)pyrrolidine-1-carboxamide] it is 0.5 to 5 nM.
With `CC(C)Oc1ccc(-c2ncc(-c3cccc4c3CC[C@@H]4NCC(=O)N3CCCC3)s2)cc1C#N` [Compound 101], the EC50 is more than 5 nM.
In the case of `CC(C)Oc1ccc(-c2cc(-c3cccc4c3CCC4O)cs2)cc1C#N` (stereo not shown) [Compound 226, 5-(4-(1-hydroxy-2,3-dihydro-1H-inden-4-yl)thiophen-2-yl)-2-isopropoxybenzonitrile], the EC50 was 0.5 to 5 nM.
To `CC(C)Oc1ccc(-c2ncc(-c3cccc4c3CC[C@@H]4NC(=O)CN)s2)cc1C#N` [Compound 77] belongs 0.05 to 0.5 nM; to `CC(C)Oc1ccc(-c2nnc(-c3cccc4c3CC[C@@H]4NCC(=O)N(C)C)s2)cc1C#N` [Compound 21, (S)-2-((4-(5-(3-cyano-4-isopropoxyphenyl)-1,3,4-thiadiazol-2-yl)-2,3-dihydro-1H-inden-1-yl)amino)-N,N-dimethylacetamide hydrochloride], 0.5 to 5 nM.
The figure for `CC(C)Oc1ccc(-c2ncc(-c3cccc4c3CC[C@@H]4NC(=O)N3CCNCC3)s2)cc1C#N` [Compound 189] is more than 5 nM.
As for `CC(C)Oc1ccc(-c2ncc(-c3cccc4c3CCC4NS(=O)(=O)CCO)s2)cc1C#N` (stereo in doubt) [Compound 164, (R)-N-(4-(2-(3-cyano-4-isopropoxyphenyl)thiazol-5-yl)-2,3-dihydro-1H-inden-1-yl)-2-hydroxyethanesulfonamide], the EC50 is 0.05 to 0.5 nM.
The figure for `CC(C)Oc1ccc(-c2ncc(-c3cccc4c3CC[C@@H]4NC(=O)Cc3ccccc3)s2)cc1C#N` [Compound 83] is more than 5 nM; for `CC(C)Oc1ccc(-c2ncc(-c3cccc4c3CCC4N3CC[C@@H](O)C3)s2)cc1C#N` (stereo partly shown) [Compound 209] it is 0.5 to 5 nM; for `CC(C)Oc1ccc(-c2ncc(-c3cccc4c3CCC4NS(=O)(=O)CC(=O)N3CCOCC3)s2)cc1C#N` (stereo in doubt) [Compound 162, (R)—N-(4-(2-(3-cyano-4-isopropoxyphenyl)thiazol-5-yl)-2,3-dihydro-1H-inden-1-yl)-2-morpholino-2-oxoethanesulfonamide] it is 0.05 to 0.5 nM.
On to `CC(C)Oc1ccc(-c2nnc(-c3cccc4c3CC[C@@H]4NCCS(C)(=O)=O)s2)cc1C#N` [Compound 31, (S)-2-isopropoxy-5-(5-(1-((2-(methylsulfonyl)ethyl)amino)-2,3-dihydro-1H-inden-4-yl)-1,3,4-thiadiazol-2-yl)benzonitrile], for which the EC50 was in the range of 0.05 to 0.5 nM.
To `CC(C)Oc1ccc(-c2ccc(-c3cccc4c3CCC4NCCO)s2)cc1C#N` (stereo not shown) [Compound 224, 5-(5-(1-(2-hydroxyethylamino)-2,3-dihydro-1H-inden-4-yl)thiophen-2-yl)-2-isopropoxybenzonitrile] belongs more than 5 nM.
